In brackets after ≈: the same amount, converted by molar mass. Read-outs that look alike come from different tables or passages of the source.
Assay: Solubility of rebaudioside B crystal polymorphs by incremental addition to solvent in a temperature controlled stirred vessel, visual determination
Assay type: physicochemical
Conditions: for solubility: 25 °C, thermodynamic from solid; for solubility / solubility in ethanol / solubility in water: 25° C.
Protocol: The solubility of each of the four crystal polymorphs of rebaudioside B was determined in the following manner. Experiments were conducted using a known volume of solvent in a temperature controlled stirred vessel. The amount of solvent used was either 1 mL or 2 mL. Rebaudioside B was added to the solvent in the temperature controlled stirred vessel in 0.5 mg increments and held to visually determine if it dissolved. If the first 0.5 mg increment dissolved, another 0.5 mg increment was added and again held to visually determine if it dissolved. […] Each incremental addition of rebaudioside B was allowed a maximum of 1 hour to dissolve (if dissolution took place more quickly it was not necessary to wait the full 1 hour).

Row | SMILES | solubility (95% ethanol/5% water solution, organic solvent or mixture, 95% ethanol/5% water solution, read-out: solubility in a 95% ethanol/5% water solution) | solubility in ethanol (in words) | solubility in ethanol | solubility in an ethanol/water mixture (in words) (ethanol/water mixture) | solubility in water (in words) (water) | solubility (water, water, water, read-out: solubility in water) | solubility in water (water)
1 | C=C1C[C@@]23CC[C@H]4[C@@](C)(CCC[C@@]4(C)C(=O)O)[C@@H]2CC[C@]1(O[C@@H]1O[C@H](CO)[C@@H](O)[C@H](O[C@@H]2O[C@H](CO)[C@@H](O)[C@H](O)[C@H]2O)[C@H]1O[C@@H]1O[C@H](CO)[C@@H](O)[C@H](O)[C@H]1O)C3 [Form 1, rebaudioside B] | ~28 mg/mL (≈ 34.8 mM) | moderate | about 8.3 mg/mL | high | low | < 0.5 mg/mL | 
2 | C=C1C[C@@]23CC[C@H]4[C@@](C)(CCC[C@@]4(C)C(=O)O)[C@@H]2CC[C@]1(O[C@@H]1O[C@H](CO)[C@@H](O)[C@H](O[C@@H]2O[C@H](CO)[C@@H](O)[C@H](O)[C@H]2O)[C@H]1O[C@@H]1O[C@H](CO)[C@@H](O)[C@H](O)[C@H]1O)C3 [Form 2, rebaudioside B] |  | low | about 2.7 mg/mL |  | low |  | less than 0.5 mg/mL
3 | C=C1C[C@@]23CC[C@H]4[C@@](C)(CCC[C@@]4(C)C(=O)O)[C@@H]2CC[C@]1(O[C@@H]1O[C@H](CO)[C@@H](O)[C@H](O[C@@H]2O[C@H](CO)[C@@H](O)[C@H](O)[C@H]2O)[C@H]1O[C@@H]1O[C@H](CO)[C@@H](O)[C@H](O)[C@H]1O)C3 [Form 3, rebaudioside B] |  | moderate | about 10 mg/mL |  | low |  | less than 0.5 mg/mL

From patent US9090647B2, “Crystalline forms of rebaudioside B” (CARGILL, INCORPORATED, priority 2010, dated 2015)
